Earlier results, collected in US20160176819A1, “ASYMMETRICALLY CHARGED NIR FLUOROPHORES” (Washington University, priority 2014, published 2016).
Where “and” joins values, the source holds several entries; their conditions need not be identical. Equal values may be shown once.

What was measured:
[1] = ICG in DMSO, literature values; cited from earlier work
[2] = reference value; cited from earlier work

CC1(C)C(/C=C/C=C/C=C/C=C2\N(CCCCS(=O)(=O)O)c3ccc4ccccc4c3C2(C)C)=[N+](CCCCS(=O)(=O)[O-])c2ccc3ccccc3c21 [ICG, indocyanine green]
fluorescence quantum yield of the reference [1]: 0.12 and 0.22 | QY of the reference [2]: 23%
